Laboratory results from PubChem BioAssay AID330 (DTP/NCI, 2004).
Where “and” joins values, the source holds several entries; their conditions need not be identical. Equal entries are not always repeated. Toxic doses and inconclusive results are not listed.

Tested on: P388 leukemia ip, CD2F1 mice, survival T/C
Test: NCI In Vivo Anticancer Drug Screen. Data for tumor model P388 Leukemia (intraperitoneal) in CD2F1 (CDF1) mice
Conditions: endpoint: median survival time, higher = longer survival
Method in brief: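 Mice carrying the transplanted tumor received test compound or vehicle. Survival was recorded in each group, and the value is the treated-group measurement divided by that of the vehicle-treated control group.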

[1] = dose: 25.0 mg/kg/injection, schedule: Q01DX009 (ip), vehicle: Klucel (hydroxypropylcellulose) (HPC)
[2] = dose: 50.0 mg/kg/injection, schedule: Q01DX009 (ip), vehicle: Klucel (hydroxypropylcellulose) (HPC)

S=c1nc[nH]c2nc[nH]c12
T/C (dose: 9.38 mg/kg/injection, schedule: Q01DX009 (ip), vehicle: alkali diluted with saline): 111 % of control | T/C (dose: 18.8 mg/kg/injection, schedule: Q01DX009 (ip), vehicle: alkali diluted with saline): 105 % of control | T/C (dose: 20.0 mg/kg/injection, schedule: Q01DX005 (ip), vehicle: alkali diluted with saline): 110 % of control | T/C (dose: 20.0 mg/kg/injection, schedule: Q01DX005 (ip), vehicle: other): 108 % of control and 92 % of control | T/C (dose: 20.0 mg/kg/injection, schedule: Q01DX009 (ip), vehicle: alkali diluted with saline): 95 % of control | T/C (dose: 20.0 mg/kg/injection, schedule: Q01DX009 (ip), vehicle: alkali diluted with water): 118 % of control | T/C (dose: 20.0 mg/kg/injection, schedule: Q04DX003 (ip), vehicle: other): 110 % of control | T/C (dose: 20.0 mg/kg/injection, schedule: Q04DX003 (iv), vehicle: other): 116 % of control | T/C (dose: 25.0 mg/kg/injection, schedule: Q01DX005 (ip), vehicle: alkali diluted with saline): 105 % of control | T/C (dose: 25.0 mg/kg/injection, schedule: Q01DX005 (ip), vehicle: alkali diluted with water): 100 % of control | T/C [1]: 115 % of control | T/C (dose: 28.13 mg/kg/injection, schedule: Q04DX003 (ip), vehicle: alkali diluted with saline): 105 % of control | T/C (dose: 37.5 mg/kg/injection, schedule: Q01DX009 (ip), vehicle: alkali diluted with saline): 110 % of control | T/C (dose: 37.5 mg/kg/injection, schedule: Q04DX003 (ip), vehicle: Klucel (hydroxypropylcellulose) (HPC)): 121 % of control | T/C (dose: 40.0 mg/kg/injection, schedule: Q01DX001 (ip), vehicle: other): 111 % of control | T/C (dose: 40.0 mg/kg/injection, schedule: Q01DX001 (iv), vehicle: other): 100 % of control | T/C (dose: 40.0 mg/kg/injection, schedule: Q01DX005 (ip), vehicle: alkali diluted with saline): 119 % of control | T/C (dose: 40.0 mg/kg/injection, schedule: Q01DX005 (ip), vehicle: other): 107 % of control and 119 % of control | T/C (dose: 40.0 mg/kg/injection, schedule: Q01DX009 (ip), vehicle: alkali diluted with saline): 101 % of control and 105 % of control and 97 % of control | T/C (dose: 40.0 mg/kg/injection, schedule: Q01DX009 (ip), vehicle: alkali diluted with water): 86 % of control | T/C (dose: 40.0 mg/kg/injection, schedule: Q04DX003 (ip), vehicle: other): 117 % of control | T/C (dose: 40.0 mg/kg/injection, schedule: Q04DX003 (iv), vehicle: other): 99 % of control | T/C (dose: 50.0 mg/kg/injection, schedule: Q01DX005 (ip), vehicle: alkali diluted with saline): 113 % of control | T/C (dose: 50.0 mg/kg/injection, schedule: Q01DX005 (ip), vehicle: alkali diluted with water): 111 % of control | T/C (dose: 50.0 mg/kg/injection, schedule: Q01DX005 (ip), vehicle: saline): 105 % of control | T/C [2]: 123 % of control | T/C (dose: 50.0 mg/kg/injection, schedule: Q01DX009 (ip), vehicle: alkali diluted with saline): 99 % of control and 104 % of control | T/C (dose: 56.25 mg/kg/injection, schedule: Q04DX003 (ip), vehicle: alkali diluted with saline): 99 % of control | T/C (dose: 60.0 mg/kg/injection, schedule: Q01DX009 (ip), vehicle: alkali diluted with saline): 102 % of control and 113 % of control | T/C (dose: 75.0 mg/kg/injection, schedule: Q01DX009 (ip), vehicle: alkali diluted with saline): 117 % of control | T/C (dose: 75.0 mg/kg/injection, schedule: Q04DX003 (ip), vehicle: Klucel (hydroxypropylcellulose) (HPC)): 117 % of control | T/C (dose: 80.0 mg/kg/injection, schedule: Q01DX001 (iv), vehicle: other): 103 % of control | T/C (dose: 80.0 mg/kg/injection, schedule: Q01DX005 (ip), vehicle: alkali diluted with saline): 120 % of control | T/C (dose: 80.0 mg/kg/injection, schedule: Q01DX005 (ip), vehicle: other): 95 % of control | T/C (dose: 80.0 mg/kg/injection, schedule: Q01DX009 (ip), vehicle: alkali diluted with saline): 95 % of control | T/C (dose: 80.0 mg/kg/injection, schedule: Q04DX003 (iv), vehicle: other): 104 % of control | T/C (dose: 100.0 mg/kg/injection, schedule: Q01DX005 (ip), vehicle: alkali diluted with saline): 105 % of control | T/C (dose: 100.0 mg/kg/injection, schedule: Q01DX005 (ip), vehicle: alkali diluted with water): 105 % of control | T/C (dose: 100.0 mg/kg/injection, schedule: Q01DX005 (ip), vehicle: saline): 102 % of control and 108 % of control | T/C (dose: 112.5 mg/kg/injection, schedule: Q04DX003 (ip), vehicle: alkali diluted with saline): 107 % of control | T/C (dose: 150.0 mg/kg/injection, schedule: Q01DX001 (ip), vehicle: alkali diluted with saline): 101 % of control and 107 % of control | T/C (dose: 160.0 mg/kg/injection, schedule: Q01DX001 (iv), vehicle: other): 103 % of control | T/C (dose: 160.0 mg/kg/injection, schedule: Q01DX005 (ip), vehicle: other): 108 % of control and 112 % of control | T/C (dose: 160.0 mg/kg/injection, schedule: Q01DX009 (ip), vehicle: alkali diluted with saline): 106 % of control | T/C (dose: 200.0 mg/kg/injection, schedule: Q01DX001 (ip), vehicle: alkali diluted with saline): 108 % of control and 111 % of control | T/C (dose: 200.0 mg/kg/injection, schedule: Q01DX005 (ip), vehicle: alkali diluted with water): 86 % of control | T/C (dose: 200.0 mg/kg/injection, schedule: Q01DX005 (ip), vehicle: saline): 100 % of control and 115 % of control and 124 % of control | T/C (dose: 225.0 mg/kg/injection, schedule: Q04DX003 (ip), vehicle: alkali diluted with saline): 98 % of control | T/C (dose: 250.0 mg/kg/injection, schedule: Q01DX001 (ip), vehicle: alkali diluted with saline): 107 % of control | T/C (dose: 250.0 mg/kg/injection, schedule: Q01DX001 (ip), vehicle: saline): 102 % of control | T/C (dose: 300.0 mg/kg/injection, schedule: Q01DX001 (ip), vehicle: alkali diluted with saline): 112 % of control | T/C (dose: 320.0 mg/kg/injection, schedule: Q01DX001 (ip), vehicle: other): 100 % of control | T/C (dose: 320.0 mg/kg/injection, schedule: Q01DX001 (iv), vehicle: other): 108 % of control | T/C (dose: 320.0 mg/kg/injection, schedule: Q04DX003 (iv), vehicle: other): 100 % of control | T/C (dose: 400.0 mg/kg/injection, schedule: Q01DX005 (ip), vehicle: saline): 89 % of control | T/C (dose: 400.0 mg/kg/injection, schedule: Q01DX009 (ip), vehicle: Klucel (hydroxypropylcellulose) (HPC)): 115 % of control | T/C (dose: 500.0 mg/kg/injection, schedule: Q01DX001 (ip), vehicle: saline): 104 % of control | T/C (dose: 640.0 mg/kg/injection, schedule: Q01DX001 (iv), vehicle: other): 105 % of control | T/C (dose: 1000.0 mg/kg/injection, schedule: Q01DX001 (ip), vehicle: saline): 99 % of control

CC(C)NC(=O)N(CCCCBr)N=O
T/C (dose: 6.25 mg/kg/injection, schedule: Q01DX009 (ip), vehicle: Klucel (hydroxypropylcellulose) (HPC)): 92 % of control | T/C (dose: 12.5 mg/kg/injection, schedule: Q01DX009 (ip), vehicle: Klucel (hydroxypropylcellulose) (HPC)): 99 % of control | T/C [1]: 101 % of control | T/C [2]: 117 % of control

CCCCCCCCCCCCCCCCCC[n+]1cccc(C2CCCN2C)c1 (centres undefined) (tested in a mixture with another compound)
T/C [1]: 104 % of control

COC(OC(CO)C(O)S(=O)(=O)O)C(O)S(=O)(=O)O (centres undefined)
T/C (dose: 6.25 mg/kg/injection, schedule: Q01DX009 (ip), vehicle: saline): 100 % of control | T/C (dose: 12.5 mg/kg/injection, schedule: Q01DX009 (ip), vehicle: saline): 105 % of control | T/C (dose: 25.0 mg/kg/injection, schedule: Q01DX009 (ip), vehicle: saline): 118 % of control | T/C (dose: 50.0 mg/kg/injection, schedule: Q01DX009 (ip), vehicle: saline): 173 % of control | T/C (dose: 100.0 mg/kg/injection, schedule: Q01DX009 (ip), vehicle: saline): 155 % of control | T/C (dose: 200.0 mg/kg/injection, schedule: Q01DX009 (ip), vehicle: saline): 157 % of control

C=C(CSCCCCCCCCCCCC)C(=O)O
T/C (dose: 50.0 mg/kg/injection, schedule: Q01DX005 (ip), vehicle: saline with Tween-80): 116 % of control | T/C (dose: 100.0 mg/kg/injection, schedule: Q01DX005 (ip), vehicle: saline with Tween-80): 114 % of control | T/C (dose: 200.0 mg/kg/injection, schedule: Q01DX005 (ip), vehicle: saline with Tween-80): 115 % of control

Cc1cc(C)c(Cn2c(=O)[nH][nH]c2=O)cc1Cn1c(=O)[nH][nH]c1=O
T/C [2]: 107 % of control | T/C (dose: 100.0 mg/kg/injection, schedule: Q01DX009 (ip), vehicle: Klucel (hydroxypropylcellulose) (HPC)): 100 % of control | T/C (dose: 200.0 mg/kg/injection, schedule: Q01DX009 (ip), vehicle: Klucel (hydroxypropylcellulose) (HPC)): 100 % of control

CC1=NCC[N-]CC[N-]CCN=C(C)C2CCCC1[N-]2.[Mn+3]
T/C (dose: 7.5 mg/kg/injection, schedule: Q01DX005 (ip), vehicle: saline with Tween-80): 100 % of control | T/C (dose: 15.0 mg/kg/injection, schedule: Q01DX005 (ip), vehicle: saline with Tween-80): 96 % of control | T/C (dose: 30.0 mg/kg/injection, schedule: Q01DX005 (ip), vehicle: saline with Tween-80): 96 % of control
